Experimental data from patent publication US8772293B2, “Chemical compounds” (Pfizer Limited, priority 2010, dated 2014).
Structures can show the parent of a compound that is named as a salt.

Biological target: T1, Nav1.7 (or SCN9A) channel (Homo sapiens, UniProt Q15858)
T1 construct: expressed in transfected cells
Assay: Nav1.7 (hSCN9A) PatchXpress electrophysiology in HEK cells
Type: cell-based
Conditions: PatchXpress platform; HEK cells stably expressing hSCN9A; held at V1/2 of inactivation; calculated from single point % inhibition; read-out: Nav1.7 EIC50 (estimated IC-50)
Description: The ability of the compounds of formula (I) to block the Nav1.7 (or SCN9A) channel were measured using the assay described below.
Human Embryonic Kidney (HEK) cells were transfected with an hSCN9A construct using lipofectamine reagent (Invitrogen), using standard techniques. Cells stably expressing the hSCN9A constructs were identified by their resistance to G-418 (400 μg/ml). Clones were screened for expression using the whole-cell voltage-clamp technique.
HEK cells stably transfected with hSCN9A were maintained in DMEM medium supplemented with 10% heat-inactivated fetal bovine serum and 400 µg/ml G-418 in an incubator at 37° C. with a humidified atmosphere of 10% CO2. For HTS, cells were harvested from flasks by trypsinization and replated in an appropriate multi-well plate (typically 96 or 384 wells/plate) such that confluence would be achieved within 24 hours of plating. For electrophysiological studies, cells were removed from the culture flask by brief trypsinization and re-plated at low density onto glass cover slips. Cells were typically used for electrophysiological experiments within 24 to 72 hours after plating.
Cover slips containing HEK cells expressing hSCN9A were placed in a bath on the stage of an inverted microscope and perfused (approximately 1 ml/minutes) with extracellular solution of the following composition: 138 mM NaCl, 2 mM CaCl2, 5.4 mM KCl, 1 mM MgCl2, 10 mM glucose, and 10 mM HEPES, pH 7.4, with NaOH. […] The osmolarity of the extracellular and intracellular solutions was 300 mOsm/kg and 295 mOsm/kg, respectively. All recordings were made at room temperature (22-24° C.) using AXOPATCH 200B amplifiers and PCLAMP software (Axon Instruments, Burlingame, Calif.).
hSCN9A currents in HEK cells were measured using the whole-cell configuration of the patch-clamp technique (Hamill et al., 1981). Uncompensated series resistance was typically 2 to 5 mega ohms and >85% series resistance compensation was routinely achieved. As a result, voltage errors were negligible and no correction was applied. Current records were acquired at 20 to 50 KHz and filtered at 5 to 10 KHz.
HEK cells stably transfected with hSCN9A were viewed under Hoffman contrast optics and placed in front of an array of flow pipes emitting either control or compound-containing extracellular solutions. All compounds were dissolved in dimethyl sulfoxide to make 10 mM stock solutions, which were then diluted into extracellular solution to attain the final concentrations desired. […] The voltage-dependence of inactivation was determined by applying a series of depolarizing prepulses (8 sec long in 10 mV increments) from a negative holding potential. The voltage was then immediately stepped to 0 mV to assess the magnitude of the sodium current. Currents elicited at 0 mV were plotted as a function of prepulse potential to allow estimation of the voltage at which 50% of the channels were inactivated (midpoint of inactivation or V1/2). Compounds were tested for their ability to inhibit hSCN9A sodium channels by activating the channel with a 20 msec voltage step to 0 mV following an 8 second conditioning prepulse to the empirically determined V1/2. Compound effect (% inhibition) was determined by difference in current amplitude before and after application of test compounds. For ease of comparison, “estimated IC-50” (EIC50) values were calculated from single point electrophysiology data by the following equation, (tested concentration, uM)×(100-% inhibition/% inhibition). Inhibition values <20% and >80% were excluded from the calculation.
Electrophysiological assays were conducted with PatchXpress 7000 hardware and associated software (Molecular Devices Corp). All assay buffers and solutions were identical to those used in conventional whole-cell voltage clamp experiments described above. hSCN9A cells were grown as above to 50%-80% confluency and harvested by trypsinization. […]

T1 sequence (Q15858 whole entry): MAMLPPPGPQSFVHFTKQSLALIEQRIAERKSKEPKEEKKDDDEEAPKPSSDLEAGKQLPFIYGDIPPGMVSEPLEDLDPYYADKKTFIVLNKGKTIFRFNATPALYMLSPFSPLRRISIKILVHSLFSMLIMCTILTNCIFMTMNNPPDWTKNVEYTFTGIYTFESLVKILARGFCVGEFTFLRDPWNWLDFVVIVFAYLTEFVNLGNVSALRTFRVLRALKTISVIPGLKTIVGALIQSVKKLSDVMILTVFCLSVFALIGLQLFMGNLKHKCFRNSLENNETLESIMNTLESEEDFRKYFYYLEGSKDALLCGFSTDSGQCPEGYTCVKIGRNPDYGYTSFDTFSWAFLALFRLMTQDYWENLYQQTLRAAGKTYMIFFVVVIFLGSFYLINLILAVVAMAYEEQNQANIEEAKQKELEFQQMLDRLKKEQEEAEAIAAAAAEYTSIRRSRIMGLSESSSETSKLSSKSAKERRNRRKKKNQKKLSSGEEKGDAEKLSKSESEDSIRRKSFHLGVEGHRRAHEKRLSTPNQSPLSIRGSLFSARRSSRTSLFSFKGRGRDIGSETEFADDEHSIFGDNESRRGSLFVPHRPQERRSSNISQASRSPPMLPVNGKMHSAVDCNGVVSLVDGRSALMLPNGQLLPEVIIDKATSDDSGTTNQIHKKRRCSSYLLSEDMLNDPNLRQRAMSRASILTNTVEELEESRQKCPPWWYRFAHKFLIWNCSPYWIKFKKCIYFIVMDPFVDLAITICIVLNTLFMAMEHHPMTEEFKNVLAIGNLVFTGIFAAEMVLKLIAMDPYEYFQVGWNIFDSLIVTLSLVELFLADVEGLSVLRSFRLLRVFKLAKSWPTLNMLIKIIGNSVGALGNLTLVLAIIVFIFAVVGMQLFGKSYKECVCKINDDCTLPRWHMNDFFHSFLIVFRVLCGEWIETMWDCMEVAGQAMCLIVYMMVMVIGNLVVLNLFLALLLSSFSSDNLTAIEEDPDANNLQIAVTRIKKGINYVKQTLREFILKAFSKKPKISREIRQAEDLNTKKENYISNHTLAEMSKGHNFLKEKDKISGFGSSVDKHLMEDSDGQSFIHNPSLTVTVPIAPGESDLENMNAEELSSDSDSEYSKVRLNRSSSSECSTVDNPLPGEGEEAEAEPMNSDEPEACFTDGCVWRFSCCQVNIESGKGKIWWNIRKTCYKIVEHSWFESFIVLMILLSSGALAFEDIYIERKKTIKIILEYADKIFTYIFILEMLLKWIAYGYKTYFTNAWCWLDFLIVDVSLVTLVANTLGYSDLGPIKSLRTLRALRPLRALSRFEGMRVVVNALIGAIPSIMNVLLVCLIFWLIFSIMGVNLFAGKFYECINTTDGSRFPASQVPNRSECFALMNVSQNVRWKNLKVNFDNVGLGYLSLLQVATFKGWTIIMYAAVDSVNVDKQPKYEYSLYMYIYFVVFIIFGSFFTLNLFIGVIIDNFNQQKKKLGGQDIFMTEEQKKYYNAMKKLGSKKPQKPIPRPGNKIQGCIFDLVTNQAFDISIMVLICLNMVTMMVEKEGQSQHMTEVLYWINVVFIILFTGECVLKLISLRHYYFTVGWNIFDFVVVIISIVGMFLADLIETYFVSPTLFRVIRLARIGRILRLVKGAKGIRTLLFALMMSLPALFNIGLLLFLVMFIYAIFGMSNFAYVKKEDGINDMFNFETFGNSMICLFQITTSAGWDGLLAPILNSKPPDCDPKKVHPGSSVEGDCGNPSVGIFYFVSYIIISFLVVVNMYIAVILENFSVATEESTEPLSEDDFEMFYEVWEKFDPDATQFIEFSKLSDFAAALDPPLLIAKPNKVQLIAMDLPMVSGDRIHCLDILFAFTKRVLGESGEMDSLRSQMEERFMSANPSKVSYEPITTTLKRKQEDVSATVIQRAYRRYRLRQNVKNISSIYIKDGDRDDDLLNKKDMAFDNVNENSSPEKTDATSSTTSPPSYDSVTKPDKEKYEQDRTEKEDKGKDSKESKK

Structure (SMILES) | IC50 [nM]
N#Cc1cc(S(=O)(=O)Nc2ncns2)ccc1Oc1ccc(-c2cccc(C(F)(F)F)c2)cc1-c1ccnnc1 [Example 1, 3-Cyano-4-{[3-pyridazin-4-yl-3′-(trifluoromethyl)biphenyl-4-yl]oxy}-N-1,2,4-thiadiazol-5-ylbenzenesulfonamide] | 1.8
O=S(=O)(Nc1ncccn1)c1cc(Cl)c(Oc2ccc(-c3ccc(C(F)(F)F)cc3)cc2-c2ccnnc2)cc1F [Example 2, 5-Chloro-2-fluoro-4-{[3-pyridazin-4-yl-4′-(trifluoromethyl)biphenyl-4-yl]oxy}-N-pyrimidin-2-ylbenzenesulfonamide] | 8.1
O=S(=O)(Nc1cccnn1)c1ccc(Oc2ccc(-c3ccc(C(F)(F)F)cc3)cc2-c2ccnnc2)c(Cl)c1 [Example 3, 3-Chloro-N-pyridazin-3-yl-4-{[3-pyridazin-4-yl-4′-(trifluoromethyl)biphenyl-4-yl]oxy}benzenesulfonamide] | 31
O=S(=O)(Nc1nncs1)c1cc(Cl)c(Oc2ccc(-c3ccccc3C(F)(F)F)cc2-c2ccnnc2)cc1F [Example 4, 5-Chloro-2-fluoro-4-{[3-pyridazin-4-yl-2′-(trifluoromethyl)biphenyl-4-yl]oxy}-N-1,3,4-thiadiazol-2-ylbenzenesulfonamide] | 2.9
O=S(=O)(Nc1nncs1)c1cc(Cl)c(Oc2ccc(-c3cccc(C(F)(F)F)c3)cc2-c2ccnnc2)cc1F [Example 5] | 1.3
O=S(=O)(Nc1nncs1)c1cc(Cl)c(Oc2ccc(-c3ccc(C(F)(F)F)cc3)cc2-c2ccnnc2)cc1F [Example 6, 5-Chloro-2-fluoro-4-{[3-pyridazin-4-yl-4′-(trifluoromethyl)biphenyl-4-yl]oxy}-N-1,3,4-thiadiazol-2-ylbenzenesulfonamide] | 2.9
N#Cc1cc(S(=O)(=O)Nc2ncns2)ccc1Oc1ccc(-c2ccc(C(F)(F)F)cc2)cc1-c1ccnnc1 [Example 7, 3-Cyano-4-{[3-pyridazin-4-yl-4′-(trifluoromethyl)biphenyl-4-yl]oxy}-N-1,2,4-thiadiazol-5-ylbenzenesulfonamide] | 1.2
Cn1nccc1-c1cc(-c2ccccc2)ccc1Oc1ccc(S(=O)(=O)Nc2nccs2)cc1F [Example 8, 3-Fluoro-4-{[3-(1-methyl-1H-pyrazol-5-yl)biphenyl-4-yl]oxy}-N-1,3-thiazol-2-ylbenzenesulfonamide] | 32
O=S(=O)(Nc1nncs1)c1ccc(Oc2ccc(-c3ccccc3)cc2-c2ccnnc2)c(Cl)c1 [Example 9, 3-Chloro-4-[(3-pyridazin-4-ylbiphenyl-4-yl)oxy]-N-1,3,4-thiadiazol-2-ylbenzenesulfonamide] | 11.6
N#Cc1cc(S(=O)(=O)Nc2nncs2)ccc1Oc1ccc(-c2ccccc2)cc1-c1ccnnc1 [Example 10, 3-Cyano-4-[(3-Pyridazin-4-ylbiphenyl-4-yl)oxy]-N-1,3,4-thiadiazol-2-ylbenzenesulfonamide] | 53
O=S(=O)(Nc1nncs1)c1cc(Cl)c(Oc2ccc(-c3ccccc3)cc2-c2ccnnc2)cc1F [Example 11, 5-Chloro-2-fluoro-4-[(3-pyridazin-4-ylbiphenyl-4-yl)oxy]-N-1,3,4-thiadiazol-2-ylbenzenesulfonamide] | 7.7
N#Cc1cc(S(=O)(=O)Nc2ncns2)ccc1Oc1ccc(-c2ccccc2)cc1-c1ccnnc1 [Example 12, 3-Cyano-4-[(3-pyridazin-4-ylbiphenyl-4-yl)oxy]-N-1,2,4-thiadiazol-5-ylbenzenesulfonamide] | 1.9
CN1CC(n2nccc2-c2cc(-c3ccccc3C(F)(F)F)ccc2Oc2cc(F)c(S(=O)(=O)Nc3nncs3)cc2Cl)C1 [Example 13, 5-Chloro-2-fluoro-4-({3-[1-(1-methylazetidin-3-yl)-1H-pyrazol-5-yl]-2′-(trifluoromethyl)biphenyl-4-yl}oxy)-N-1,3,4-thiadiazol-2-ylbenzenesulfonamide] | 2.2
CN1CC(n2nccc2-c2cc(-c3ccc(C(F)(F)F)cc3)ccc2Oc2cc(F)c(S(=O)(=O)Nc3nncs3)cc2Cl)C1 [Example 14, 5-Chloro-2-fluoro-4-({3-[1-(1-methylazetidin-3-yl)-1H-pyrazol-5-yl]-4′-(trifluoromethyl)biphenyl-4-yl}oxy)-N-1,3,4-thiadiazol-2-ylbenzenesulfonamide] | 1.1
Cn1nccc1-c1cc(-c2ccccc2)ccc1Oc1ccc(S(=O)(=O)Nc2ncc(F)s2)cc1C#N [Example 15, 3-Cyano-N-(5-fluoro-1,3-thiazol-2-yl)-4-{[3-(1-methyl-1H-pyrazol-5-yl)biphenyl-4-yl]oxy}benzenesulfonamide] | 6
Cn1nccc1-c1cc(-c2ccccc2)ccc1Oc1ccc(S(=O)(=O)Nc2ncns2)cc1C#N [Example 16, 3-Cyano-4-{[3-(1-methyl-1H-pyrazol-5-yl)biphenyl-4-yl]oxy}-N-1,2,4-thiadiazol-5-ylbenzenesulfonamide] | 1.5
N#Cc1cc(S(=O)(=O)Nc2ncns2)ccc1Oc1ccc(-c2ccccc2C(F)(F)F)cc1-c1ccnnc1 [Example 17, 3-Cyano-4-{[3-pyridazin-4-yl-2′-(trifluoromethyl)biphenyl-4-yl]oxy}-N-1,2,4-thiadiazol-5-ylbenzenesulfonamide] | 2.7
COc1cccc(-c2ccc(Oc3ccc(S(=O)(=O)Nc4nccs4)cc3C#N)c(-c3ccnn3C)c2)c1 [Example 18, 3-Cyano-4-{[3′-methoxy-3-(1-methyl-1H-pyrazol-5-yl)biphenyl-4-yl]oxy}-N-(1,3-thiazol-2-yl)benzenesulfonamide] | 18
COc1ccccc1-c1ccc(Oc2ccc(S(=O)(=O)Nc3nccs3)cc2C#N)c(-c2ccnn2C)c1 [Example 19, 3-Cyano-4-{[2′-methoxy-3-(1-methyl-1H-pyrazol-5-yl)biphenyl-4-yl]oxy}-N-(1,3-thiazol-2-yl)benzenesulfonamide] | 11
Cn1nccc1-c1cc(-c2ccccc2)ccc1Oc1ccc(S(=O)(=O)Nc2ccc(F)cn2)cc1C#N [Example 20, 3-Cyano-N-(5-fluoropyridin-2-yl)-4-{[3-(1-methyl-1H-pyrazol-5-yl)biphenyl-4-yl]oxy}benzenesulfonamide] | 240
Cn1nccc1-c1cc(-c2cccc(CN)c2)ccc1Oc1ccc(S(=O)(=O)Nc2nccs2)cc1C#N [Example 21, 4-{[3′-(Aminomethyl)-3-(1-methyl-1H-pyrazol-5-yl)biphenyl-4-yl]oxy}-3-cyano-N-(1,3-thiazol-2-yl)benzenesulfonamide, hydrochloride salt] | 100
Cn1nccc1-c1cc(-c2ccccc2)ccc1Oc1cc(F)c(S(=O)(=O)Nc2ccc(F)cn2)cc1Cl [Example 22, 5-Chloro-2-fluoro-N-(5-fluoropyridin-2-yl)-4-{[3-(1-methyl-1H-pyrazol-5-yl)biphenyl-4-yl]oxy}benzenesulfonamide] | 33
CNCc1ccccc1-c1ccc(Oc2ccc(S(=O)(=O)Nc3nccs3)cc2C#N)c(-c2ccnn2C)c1 [Example 23, 3-Cyano-4-({2′-[(methylamino)methyl]-3-(1-methyl-1H-pyrazol-5-yl)biphenyl-4-yl}oxy)-N-(1,3-thiazol-2-yl)benzenesulfonamide, trifluoroacetate salt] | 5.1
O=S(=O)(Nc1nncs1)c1cc(Cl)c(Oc2cc(Cl)c(-c3ccc(F)cc3)cc2-c2ccnnc2)cc1F [Example 24, 5-Chloro-4-{[2-chloro-4′-fluoro-5-(pyridazin-4-yl)biphenyl-4-yl]oxy}-2-fluoro-N-(1,3,4-thiadiazol-2-yl)benzenesulfonamide] | 1.7
Nc1n[nH]cc1-c1cc(-c2cccc(C(F)(F)F)c2)ccc1Oc1cc(F)c(S(=O)(=O)Nc2nncs2)cc1Cl [Example 25, 4-{[3-(3-Amino-1H-pyrazol-4-yl)-3′-(trifluoromethyl)biphenyl-4-yl]oxy}-5-chloro-2-fluoro-N-(1,3,4-thiadiazol-2-yl)benzenesulfonamide] | 0.8
